Measurements reported in patent publication US20150045291A1, “LIPOPEPTIDE CONJUGATES COMPRISING SPHINGOLIPID AND HIV GP41 DERIVED PEPTIDES” (priority 2012, published 2015).
Like-named read-outs stand apart in the source and are kept apart here. Starred links: 1 amine or outer side, 2 acyl side, 3 side chain; linkers in the order of their positions; H or OH if unused. Residues, ends and D or L forms follow the SMILES beside them. *: point of attachment. Cholesteryloxycarbonyl = CC(C)CCC[C@@H](C)[C@H]1CC[C@H]2[C@@H]3CC=C4C[C@@H](OC(=O)*)CC[C@]4(C)[C@H]3CC[C@]12C; X1 = Cc1c(C)c2c(c(C)c1OC(=O)CCC(=O)*)CCC(C)(CCCC(C)CCCC(C)CCCC(C)C)O2; Sphinganine = CCCCCCCCCCCCCCC[C@@H](O)[C@H](CO)N*; Palmitoyl = CCCCCCCCCCCCCCCC(=O)*; CO = O=C([*:1])[*:2]

Experiments:
[1] = Hydrophobicity by RP-HPLC; assay type: physicochemical; conditions: RP-HPLC retention time, analytical C2 column, CH3CN/H2O gradient
Description: Peptide synthesis, lipid moiety conjugation, and fluorescent labeling. Peptides were synthesized on Rink Amide MBHA resin by using the F-moc strategy. Several peptides contain a lysine residue at their C-terminus with an MTT side-chain protecting group (Nova-biochem AG, Switzerland) that requires a special deprotection step under mild acidic conditions (2×1 min of 5% trifluoroacetic acid (TFA) in dichloromethane (DCM) and 30 min of 1% TFA in DCM). This enables the conjugation of a lipid moiety or a fluorescent probe to the C-terminus. The chemical synthesis schemes of the following compounds 1-5 are described in FIG. 6. Conjugation of hexadecanoic (palmitic) acid (C16) or α-Tocopherol succinate (Sigma Chemical Co., Israel) to the N-terminus of selected peptides (compound 2 and compound 4, respectively) was performed using standard F-moc chemistry. Conjugation of cholesterol to the N-terminus of a peptide (compound 3) was performed by adding 10 equivalents of cholesteryl chloroformate (Alfa Aesar, USA) dissolved in DCM, together with 3 equivalents of triethyl amine to the peptides' resin. Conjugation of D-erythro-Dihydrosphingosine (D-erythro sphinganine), (Matreya, LCC, USA) to the N- or C-terminus of a peptide (compound 1) was performed as followed: first, 10 equivalents of N,N′-Disuccinimidyl carbonate (DSC) (Chem-Impex Internatinal, USA) and 20 equivalents of N,N-Diisopropylethylamine (DIEA) were added to the resin for 2 hours in dimethylformamide (DMF). Then, 2 equivalents of sphinganine and 2 equivalents of DIEA were added for overnight incubation in DMF anhydrous. The conjugation of D-erythro-Sphingosine (Matreya, LCC, USA) to the peptides (compound 5) was performed as described for compound 1. Addition of NBD-F, fluoride (4-fluoro-7-nitrobenzofurazan) (NBD) fluorescent probe (Biotium, USA) to the N- or C-terminus of selected peptides was performed in DMF for 1 hour. All peptides were cleaved from the resin by a TFA:DDW:TES (93.1:4.9:2 (v/v)) mixture, and purified by reverse-phase high-performance liquid chromatography (RP-HPLC) to >95% homogeneity. The molecular weight of the peptides was confirmed by platform LCA electrospray mass spectrometry. For hydrophobicity tests the peptides were eluted with a flow rate of 0.6 ml/min using a two-step linear gradient from CH3CN/H2O 20:80 v/v to CH3CN/H2O 95:5 v/v in 30 min and from CH3CN/H2O 95:5 v/v to CH3CN/H2O 95:5 in 10 min v/v on an analytical C2 column (7 μm particle size, pore size 100 Å) from Nucleosil.
Hydrophobicity (min): Hydrophobicity was analyzed by RP-HPLC. The retention time of each compound is presented.

[2] = Peptide binding to LUV, PC:SM:Chol (1:1:1); conditions: Ka, NBD-labeled compound titrated with LUV; mean±s.d. of the fitting curve, n=3
Description: (§1) Lipid vesicle preparation. Large unilamellar vesicles (LUV) were prepared from egg phosphatidylcholine (PC), cholesterol (Chol) and egg yolk sphingomyelin (SM) (Sigma Chemical Co., Israel). A dried film of lipids containing a total of 2 mg of PC:SM:Chol (1:1:1) or 2 mg of PC:Chol (9:1) was suspended in PBS and vortexed for 1.5 min. The lipid suspension underwent five cycles of freezing-thawing and then extrusion through polycarbonate membranes with 1 μm and 0.1 μm diameter pores for 25 times.
(§2) Peptide binding to LUV. The degree of peptide association with lipid vesicles was measured by adding lipid vesicles to 0.1 μM fluorescently NBD-labeled peptides at room temperature. The fluorescence intensity was measured as a function of the lipid:peptide molar ratio, with excitation set at 467 nm (10-nm slit) and emission set at 530 nm (10-nm slit). To determine the extent of the lipid's contribution to any given signal, the readings after the addition of lipid vesicles were subtracted as background from the recorded fluorescence intensity. The affinity constants were then determined by steady state affinity model using non-linear least-squares (NLLSQ). The NLLSQ fitting was done using the following equation: […]
(§3) where X is the lipid concentration, Y(x) is the fluorescence emission, Fmax is the maximal difference in the emission of NBD-labeled peptide before and after the addition of lipids (it represents the maximum peptide bound to lipid), and Ka is the affinity constant.
(§4) Compound association with lipid vesicles was estimated by NBD-labeled compound titration with large unilamellar vesicles. The mole ratio between phosphatidylcholine (PC), sphingomyelin (SM), and cholesterol (Chol) is presented for each vesicle. The membrane-binding constants (Ka) were calculated from equation 2 in the Methods. Results represent the mean±s.d. of the fitting curve, n=3.

[3] = Peptide binding to LUV, PC:Chol (9:1); conditions: Ka, NBD-labeled compound titrated with LUV; mean±s.d. of the fitting curve, n=3
Description: as §1, §2, §3, §4

[4] = system: fully infectious HIV-1 HXB2
[5] = Secondary structure determination by circular dichroism; assay type: physicochemical; conditions: percentage of α-helical structure, CD, 10 μM peptide in HEPES buffer 5 mM pH 7.4, 25° C.
Description: Secondary structure determination. Circular Dichroism (CD) measurements were performed by using an AppliedPhoto physics spectropolarimeter. The spectra were scanned using a thermostatic quartz cuvette with a path length of 1 mm. Wavelength scans were performed at 25° C.; the average recording time was 15 sec, in 1-nm steps, in the wavelength range of 190-260 nm. Each peptide concentration was 10 μM in HEPES buffer (5 mM, pH 7.4).
Helicity (%): The percentage of α-helical structure was determined as described in the section of Materials and Methods.

[6] = system: Fuzeon-resistant LAI strain with V38E mutation in gp41; assay: Fuzeon-resistant virus infection; conditions: mutation in the GIV sequence (V38E)
[7] = system: pseudotyped virus with LAI ENV (CXCR4 tropic)
[8] = system: pseudotyped virus with AD8 ENV (CCR5 tropic)
[9] = fully infectious HIV-1 system (Table 2)
[10] = read-out: Virus-cell fusion IC50, TZM-bl cells infected with fully contagious HIV, mean±s.d., n=3

Molecule | Hydrophobicity [1] [min] | Membrane-binding constant (M^−1), PC:SM:Chol (1:1:1) [2] [M⁻¹] | Membrane-binding constant (M^−1), PC:Chol (9:1) [3] [M⁻¹] | IC50 [4, 9] [µM] | IC50 [4, 10] [µM] | Helicity (%) [5] [%] | Antiviral activity against V38E mutant (in words) [6] | IC50 [7] [nM] | IC50 [8] [nM] | Effect on viral infectivity / fusion (in words) ([4]; at / up to 1 μM) | IC50 ([4]; read-out: IC50 (inhibitory concentration at 50% infectivity), TZM-bl cells, fully contagious HXB2 HIV-1) [µM] | Viral infectivity curves, compound added to target cells before the virus vs immediately after ([4]; time of addition) | Inhibiting viral infectivity (in words) ([4]; up to 4 μM, the maximal concentration tested)
CCCCCCCCCCCCCCCC(=O)N[C@@H](CC(C)C)C(=O)N[C@@H](CC(C)C)C(=O)N[C@@H](CCC(N)=O)C(=O)N[C@@H](CC(C)C)C(=O)N[C@H](C(=O)N[C@H](C(=O)N[C@@H](Cc1c[nH]c2ccccc12)C(=O)NCC(=O)N[C@H](C(=O)N[C@@H](CCCCN)C(=O)N[C@@H](CCC(N)=O)C(=O)N[C@@H](CC(C)C)C(=O)N[C@@H](CCC(N)=O)C(=O)N[C@@H](C)C(=O)N[C@@H](CCCNC(=N)N)C(=O)N[C@H](C(=O)N[C@@H](CC(C)C)C(N)=O)[C@@H](C)CC)[C@@H](C)CC)C(C)C)[C@@H](C)O [Palmitic acid-N17] (Palmitoyl-LLQLTVWGIKQLQARIL-NH2) | 26.7 | 150000 ± 70000 | 170000 ± 30000 | > 4 | > 4 | <10 |  |  |  |  |  |  | 
CCCCCCCCCCCCCCC[C@@H](O)[C@H](CO)NC(=O)N[C@@H](CC(C)C)C(=O)N[C@@H](CC(C)C)C(=O)N[C@@H](CCC(N)=O)C(=O)N[C@@H](CC(C)C)C(=O)N[C@H](C(=O)N[C@H](C(=O)N[C@@H](Cc1c[nH]c2ccccc12)C(=O)NCC(=O)N[C@H](C(=O)N[C@@H](CCCCN)C(=O)N[C@@H](CCC(N)=O)C(=O)N[C@@H](CC(C)C)C(=O)N[C@@H](CCC(N)=O)C(=O)N[C@@H](C)C(=O)N[C@@H](CCCNC(=N)N)C(=O)N[C@H](C(=O)N[C@@H](CC(C)C)C(N)=O)[C@@H](C)CC)[C@@H](C)CC)C(C)C)[C@@H](C)O [Sphinganine-N17, Sphinganine-LLQLTVWGIKQLQARIL] ({Sphinganine-CO}-LLQLTVWGIKQLQARIL-NH2) | 27.2 | 84000 ± 14000 | 470000 ± 100000 | 0.121 ± 0.036 |  | <10 | preserved its potent antiviral activity | 312 | 403 | completely blocks fusion | 0.121 | no difference | 
CC[C@H](C)[C@H](NC(=O)CNC(=O)[C@H](Cc1c[nH]c2ccccc12)NC(=O)[C@@H](NC(=O)[C@@H](NC(=O)[C@H](CC(C)C)NC(=O)[C@H](CCC(N)=O)NC(=O)[C@H](CC(C)C)NC(=O)[C@H](CC(C)C)NC(=O)O[C@H]1CC[C@@]2(C)C(=CC[C@H]3[C@@H]4CC[C@H]([C@H](C)CCCC(C)C)[C@@]4(C)CC[C@@H]32)C1)[C@@H](C)O)C(C)C)C(=O)N[C@@H](CCCCN)C(=O)N[C@@H](CCC(N)=O)C(=O)N[C@@H](CC(C)C)C(=O)N[C@@H](CCC(N)=O)C(=O)N[C@@H](C)C(=O)N[C@@H](CCCNC(=N)N)C(=O)N[C@H](C(=O)N[C@@H](CC(C)C)C(N)=O)[C@@H](C)CC [Cholesterol-N17] (Cholesteryloxycarbonyl-LLQLTVWGIKQLQARIL-NH2) | 28.9 |  |  | > 4 | > 4 | <10 |  |  |  |  |  |  | 
CC[C@H](C)[C@H](NC(=O)CNC(=O)[C@H](Cc1c[nH]c2ccccc12)NC(=O)[C@@H](NC(=O)[C@@H](NC(=O)[C@H](CC(C)C)NC(=O)[C@H](CCC(N)=O)NC(=O)[C@H](CC(C)C)NC(=O)[C@H](CC(C)C)NC(=O)CCC(=O)Oc1c(C)c(C)c2c(c1C)CCC(C)(CCCC(C)CCCC(C)CCCC(C)C)O2)[C@@H](C)O)C(C)C)C(=O)N[C@@H](CCCCN)C(=O)N[C@@H](CCC(N)=O)C(=O)N[C@@H](CC(C)C)C(=O)N[C@@H](CCC(N)=O)C(=O)N[C@@H](C)C(=O)N[C@@H](CCCNC(=N)N)C(=O)N[C@H](C(=O)N[C@@H](CC(C)C)C(N)=O)[C@@H](C)CC (stereo partly drawn) [Tocopherol-N17] (X1-LLQLTVWGIKQLQARIL-NH2) | 28.9 |  |  | > 4 | > 4 | <10 |  |  |  |  |  |  | 
CC[C@H](C)[C@H](NC(=O)CNC(=O)[C@H](Cc1c[nH]c2ccccc12)NC(=O)[C@@H](NC(=O)[C@@H](NC(=O)[C@H](CC(C)C)NC(=O)[C@H](CCC(N)=O)NC(=O)[C@H](CC(C)C)NC(=O)[C@@H](N)CC(C)C)[C@@H](C)O)C(C)C)C(=O)N[C@@H](CCCCN)C(=O)N[C@@H](CCC(N)=O)C(=O)N[C@@H](CC(C)C)C(=O)N[C@@H](CCC(N)=O)C(=O)N[C@@H](C)C(=O)N[C@@H](CCCNC(=N)N)C(=O)N[C@H](C(=O)N[C@@H](CC(C)C)C(N)=O)[C@@H](C)CC [N17, LLQLTVWGIKQLQARIL] (H-LLQLTVWGIKQLQARIL-NH2; C-terminus assumed) | 18.2 |  |  | > 4 | > 4 | 20 |  |  |  |  |  |  | not active
enfuvirtide |  | 31000 ± 5000 | 64000 ± 14000 |  |  |  | considerably weakened the antiviral activity |  |  |  |  |  | 
